≈ marks a conversion by molar mass, not a printed value.

We go through 4 molecules from US11155542B2, “Antimicrobial compounds, their use for the treatment of mammalian infections and a new metabolic mechanism” (priority 2016, dated 2021).

This assay relates to Mtb (PDR) 12700. Description: Resazurin microtiter assay (REMA), MIC Mtb (PDR) 12700. The following applies: Mycobacterium tuberculosis; PDR = poly drug resistant (isoniazid and streptomycin). It is filed as cell-based.

A word on the MIC: it is the smallest concentration in the dilution series that meets the test's criterion for growth inhibition. As to `C[C@H]1COC2(CCN(c3nc(=O)c4cc(C(F)(F)F)cc([N+](=O)[O-])c4s3)CC2)O1` [BTZ043, (S)-2-(2-methyl-1,4-dioxa-8-azaspiro[4.5]decan-8-yl)-8-nitro-6-(trifluoro-methyl)-4H-1,3-benzothiazin-4-one, reference compound], the MIC was 2 ng/mL (≈ 4.64 nM).

`Cc1c(C(F)(F)F)cc2c(=O)nc(N3CCC4(CC3)OC[C@H](C)O4)sc2c1[N+](=O)[O-]` [Example 9a, (S)-7-Methyl-2-(2-methyl-1,4-dioxa-8-azaspiro[4.5]decan-8-yl)-8-nitro-6-(trifluoromethyl)-4H-1,3-benzothiazin-4-one] registered an MIC of 250 ng/mL (≈ 561 nM).

Regarding `Cc1c(C(F)(F)F)cc([N+](=O)[O-])c2sc(N3CCC4(CC3)OC[C@H](C)O4)nc(=O)c12` [Example 9b, (S)-5-Methyl-2-(2-methyl-1,4-dioxa-8-azaspiro[4.5]decan-8-yl)-8-nitro-6-(trifluoromethyl)-4H-1,3-benzothiazin-4-one], the MIC stood at 4 ng/mL (≈ 8.98 nM).

`Cc1c(C(F)(F)F)cc([N+](=O)[O-])c2sc(N3CCN(CC4CCCCC4)CC3)nc(=O)c12` [Example 16, 2-(4-(Cyclohexylmethyl)piperazin-1-yl)-5-methyl-8-nitro-6-(trifluoromethyl)-4H-1,3-benzothiazin-4-one]: the MIC is no more than 0.063 ng/mL.
